Measured values published in patent US8802597B2, “Herbicidal pyrimidines” (E I du Pont de Nemours and Company, priority 2003, dated 2014).

Experiments:
Assay type in all cases: in vivo
[1] = tested on: chickweed (Stellaria media); assay: Test C postemergence; conditions: for Chickweed plant response rating: scale 0 to 100 (0 no effect, 100 complete control); for Plant response rating, Chickweed: scale 0 to 100
Outline: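 Seeds sown and sprayed preemergence with test compound in non-phytotoxic solvent containing surfactant; postemergence sprays, same formulation, went onto plants 2 to 18 cm tall (1- to 4-leaf stage). Plants held in greenhouse 12 to 14 days, then visually rated against untreated controls on a 0–100 scale (0 no effect, 100 complete control).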

[2] = tested on: woolly cupgrass (Eriochloa villosa); assay: Test C pre/postemergence; conditions: Postemergence; for Cupgrass, Woolly plant response rating: scale 0 to 100 (0 no effect, 100 complete control); for Plant response rating, Cupgrass, Woolly: scale 0 to 100
Description: (§1) Seeds or nutlets of plant species selected from bermudagrass (Cynodon dactylon), Surinam grass (Brachiaria decumbens), cocklebur (Xanthium strumarium), corn (Zea mays), crabgrass (Digitaria sanguinalis), woolly cupgrass (Eriochloa villosa), giant foxtail (Setaria faberii), goosegrass (Eleusine indica), johnsongrass (Sorghum halepense), kochia (Kochia scoparia), lambsquarters (Chenopodium album), morningglory (Ipomoea coccinea), eastern black nightshade (Solanum ptycanthum), yellow nutsedge (Cyperus esculentus), pigweed (Amaranthus retroflexus), common ragweed (Ambrosia elatior), soybean (Glycine max), common (oilseed) sunflower (Helianthus annuus), and velvetleaf (Abutilon theophrasti) were planted and treated preemergence with test chemicals formulated in a non-phytotoxic solvent mixture which included a surfactant.
(§2) At the same time, plants selected from these crop and weed species and also winter barley (Hordeum vulgare), blackgrass (Alopecurus myosuroides), canarygrass (Phalaris minor), chickweed (Stellaria media), downy brome (Bromus tectorum), green foxtail (Setaria viridis), Italian ryegrass (Lolium multiflorum), wheat (Triticum aestivum), wild oat (Avena fatua) and windgrass (Apera spica-venti) were treated with postemergence applications of some of the test chemicals formulated in the same manner. Plants ranged in height from 2 to 18 cm (1- to 4-leaf stage) for postemergence treatments. Plant species in the flooded paddy test consisted of rice (Oryza sativa), umbrella sedge (Cyperus difformis), duck salad (Heteranthera limosa) and barnyardgrass (Echinochloa crus-galli) grown to the 2-leaf stage for testing. Treated plants and controls were maintained in a greenhouse for 12 to 14 days, after which time all species were compared to controls and visually evaluated. Plant response ratings, summarized in Table C, are based on a scale of 0 to 100 where 0 is no effect and 100 is complete control. A dash (-) response means no test result.

[3] = tested on: johnsongrass (Sorghum halepense); assay: Test C pre/postemergence; conditions: Postemergence; for Plant response rating, Johnsongrass: scale 0 to 100
Description: as §1, §2

[4] = tested on: pigweed (Amaranthus retroflexus); assay: Test C pre/postemergence; conditions: Postemergence; for Pigweed plant response rating: scale 0 to 100 (0 no effect, 100 complete control); for Plant response rating, Pigweed: scale 0 to 100
Description: as §1, §2

soybean (Glycine max) = assay: Test C pre/postemergence; conditions: Postemergence; for Soybean plant response rating: scale 0 to 100 (0 no effect, 100 complete control); for Plant response rating, Soybean: scale 0 to 100
Description: as §1, §2

[5] = tested on: common ragweed (Ambrosia elatior); assay: Test C pre/postemergence; conditions: Postemergence; for Ragweed plant response rating: scale 0 to 100 (0 no effect, 100 complete control); for Plant response rating, Ragweed: scale 0 to 100
Description: as §1, §2

[6] = tested on: yellow nutsedge (Cyperus esculentus); assay: Test C pre/postemergence; conditions: Postemergence; for Nutsedge, Yellow plant response rating: scale 0 to 100 (0 no effect, 100 complete control); for Plant response rating, Nutsedge, Yellow: scale 0 to 100
Description: as §1, §2

[7] = tested on: morningglory (Ipomoea coccinea); assay: Test C pre/postemergence; conditions: Postemergence; for Morningglory plant response rating: scale 0 to 100 (0 no effect, 100 complete control); for Plant response rating, Morningglory: scale 0 to 100
Description: as §1, §2

[8] = tested on: Surinam grass (Brachiaria decumbens); assay: Test C pre/postemergence; conditions: Postemergence; for Surinam Grass plant response rating: scale 0 to 100 (0 no effect, 100 complete control); for Plant response rating, Surinam Grass: scale 0 to 100
Description: as §1, §2

[9] = tested on: giant foxtail (Setaria faberii); assay: Test C pre/postemergence; conditions: Postemergence; for Foxtail, Giant plant response rating: scale 0 to 100 (0 no effect, 100 complete control); for Plant response rating, Foxtail, Giant: scale 0 to 100
Description: as §1, §2

kochia (Kochia scoparia) = assay: Test C pre/postemergence; conditions: Postemergence; for Kochia plant response rating: scale 0 to 100 (0 no effect, 100 complete control); for Plant response rating, Kochia: scale 0 to 100
Description: as §1, §2

CC(=O)NN=Cc1nc(C2CC2)nc(N)c1Br [Compound 51]
Chickweed plant response rating ([1]; 62 g ai/ha): 0
Chickweed plant response rating ([1]; 125 g ai/ha): 0
Plant response rating, Chickweed ([1]; 250 g ai/ha): 0
Plant response rating, Chickweed ([1]; 500 g ai/ha): 45
Cupgrass, Woolly plant response rating ([2]; 62 g ai/ha): 0
Cupgrass, Woolly plant response rating ([2]; 125 g ai/ha): 0
Plant response rating, Cupgrass, Woolly ([2]; 250 g ai/ha): 0
Plant response rating, Cupgrass, Woolly ([2]; 500 g ai/ha): 0
Johnsongrass plant response rating ([3]; 62 g ai/ha, scale 0 to 100 (0 no effect, 100 complete control)): 0
Plant response rating, Johnsongrass ([3]; 250 g ai/ha): 0
Plant response rating, Johnsongrass ([3]; 500 g ai/ha): 0
Pigweed plant response rating ([4]; 62 g ai/ha): 65
Pigweed plant response rating ([4]; 125 g ai/ha): 70
Plant response rating, Pigweed ([4]; 250 g ai/ha): 80
Plant response rating, Pigweed ([4]; 500 g ai/ha): 85
Soybean plant response rating (soybean (Glycine max); 62 g ai/ha): 75
Soybean plant response rating (soybean (Glycine max); 125 g ai/ha): 95
Plant response rating, Soybean (soybean (Glycine max); 250 g ai/ha): 95
Plant response rating, Soybean (soybean (Glycine max); 500 g ai/ha): 95
Ragweed plant response rating ([5]; 62 g ai/ha): 65
Ragweed plant response rating ([5]; 125 g ai/ha): 80
Plant response rating, Ragweed ([5]; 250 g ai/ha): 80
Plant response rating, Ragweed ([5]; 500 g ai/ha): 85
Nutsedge, Yellow plant response rating ([6]; 62 g ai/ha): 0
Nutsedge, Yellow plant response rating ([6]; 125 g ai/ha): 0
Plant response rating, Nutsedge, Yellow ([6]; 250 g ai/ha): 0
Plant response rating, Nutsedge, Yellow ([6]; 500 g ai/ha): 0
Morningglory plant response rating ([7]; 62 g ai/ha): 80
Morningglory plant response rating ([7]; 125 g ai/ha): 80
Plant response rating, Morningglory ([7]; 250 g ai/ha): 85
Plant response rating, Morningglory ([7]; 500 g ai/ha): 100
Surinam Grass plant response rating ([8]; 62 g ai/ha): 0
Surinam Grass plant response rating ([8]; 125 g ai/ha): 0
Plant response rating, Surinam Grass ([8]; 250 g ai/ha): 0
Plant response rating, Surinam Grass ([8]; 500 g ai/ha): 0
Foxtail, Giant plant response rating ([9]; 62 g ai/ha): 0
Foxtail, Giant plant response rating ([9]; 125 g ai/ha): 0
Plant response rating, Foxtail, Giant ([9]; 250 g ai/ha): 0
Plant response rating, Foxtail, Giant ([9]; 500 g ai/ha): 0
Kochia plant response rating (kochia (Kochia scoparia); 62 g ai/ha): 15
Kochia plant response rating (kochia (Kochia scoparia); 125 g ai/ha): 60
Plant response rating, Kochia (kochia (Kochia scoparia); 250 g ai/ha): 85
Plant response rating, Kochia (kochia (Kochia scoparia); 500 g ai/ha): 95
